Values quoted from earlier work, collected in US20030064108A1, “TASTE MASKED PHARMACEUTICAL COMPOSITIONS” (priority 1996, published 2003).

Settings: 1 g every 6 hours, repeated administration

CC(=O)Nc1ccc(O)cc1 [paracetamol]
mean maximum concentration: about 12 mg/L | mean trough plasma concentration (immediately pre-dose): 3 mg/L
